Results on 7 compounds are retold here after ChEMBL document CHEMBL1144019 (Bioorg Med Chem, 2008).

Holding throughout (type): functional
Experiment [1] has as its system Escherichia coli. Put plainly: Antibacterial activity against Escherichia coli SR-21003 by standard serial agar dilution method. (In general: In agar dilution the substance is mixed into plates at graded concentrations.)
Experiment [2] relates to Escherichia coli. Put plainly: Antibacterial activity against Toho 2 producing Escherichia coli by standard serial agar dilution method.
In experiment [3] the test system is Moraxella catarrhalis. Nature of the experiment: Antibacterial activity against Moraxella catarrhalis ATCC 43617 by standard serial agar dilution method.
Experiment [4] deals with Streptococcus pneumoniae. Nature of the experiment: Antibacterial activity against penicillin-resistant Streptococcus pneumoniae SR-16675 by standard serial agar dilution method.
Experiment [5] relates to Pseudomonas aeruginosa. Nature of the experiment: Antibacterial activity against AmpC hyperproducing Pseudomonas aeruginosa SR24-12 by standard serial agar dilution method.
In experiment [6] the test system is Haemophilus influenzae. Nature of the experiment: Antibacterial activity against Haemophilus influenzae ATCC 49766 by standard serial agar dilution method.
For experiment [7], the system named is Pseudomonas aeruginosa. Put plainly: Antibacterial activity against Pseudomonas aeruginosa SR-5393 by standard serial agar dilution method.
Experiment [8] relates to Haemophilus influenzae. Put plainly: Antibacterial activity against beta-lactamase negative ampicillin-resistant Haemophilus influenzae SR-11435 by standard serial agar dilution method.
Experiment [9] concerns Staphylococcus aureus. Nature of the experiment: Antibacterial activity against Staphylococcus aureus Smith by standard serial agar dilution method.
The test system of experiment [10] is Pseudomonas aeruginosa. Nature of the experiment: Antibacterial activity against Pseudomonas aeruginosa SR24 by standard serial agar dilution method.
Experiment [11] concerns Enterobacter cloacae. Nature of the experiment: Antibacterial activity against AmpC producing Enterobacter cloacae SR-4321 by standard serial agar dilution method.
For experiment [12], the system named is Enterobacter cloacae. Nature of the experiment: Antibacterial activity against Enterobacter cloacae ATCC 13047 by standard serial agar dilution method.
Experiment [13] deals with Pseudomonas aeruginosa. Nature of the experiment: Antibacterial activity against imipenem-resistant Pseudomonas aeruginosa SR-6554 by standard serial agar dilution method.

≈ marks a conversion by molar mass, not a printed value.

With `C[C@H](N)CCn1c(N)nc2c1ccc[n+]2CC1=C(C(=O)[O-])N2C(=O)[C@@H](NC(=O)/C(=N\O[C@@H](C)C(=O)O)c3nc(N)sc3Cl)[C@H]2SC1`, the MIC in [1] stood at 0.25 µg/mL (≈ 0.361 µM); in [2] it was 2 µg/mL (≈ 2.89 µM); in experiment [3] it was 0.008 µg/mL (≈ 0.0115 µM); in [4] it was 2 µg/mL (≈ 2.89 µM); in [5], 4 µg/mL (≈ 5.77 µM); in experiment [6], 0.016 µg/mL (≈ 0.0231 µM). Also, the MIC in [7] is 2 µg/mL (≈ 2.89 µM); in experiment [8], 0.063 µg/mL (≈ 0.0909 µM); in experiment [9], 2 µg/mL (≈ 2.89 µM); in experiment [10], 0.5 µg/mL (≈ 0.721 µM); in experiment [11], 2 µg/mL (≈ 2.89 µM); in experiment [12], 0.5 µg/mL (≈ 0.721 µM). Besides, in [13], the MIC was 8 µg/mL (≈ 11.5 µM).

For the compound `C[C@H](O/N=C(\C(=O)N[C@@H]1C(=O)N2C(C(=O)[O-])=C(C[n+]3ccc(NC4CNC4)cc3)CS[C@H]12)c1nc(N)sc1Cl)C(=O)O`, the MIC in experiment [1] was determined as 0.5 µg/mL (≈ 0.785 µM); in [2], 4 µg/mL (≈ 6.28 µM); in experiment [3] it was 0.016 µg/mL (≈ 0.0251 µM); in [4] it was 4 µg/mL (≈ 6.28 µM); in [5], 4 µg/mL (≈ 6.28 µM); in experiment [6] it was 0.063 µg/mL (≈ 0.0989 µM). Besides, the MIC turned out to be 2 µg/mL (≈ 3.14 µM) in experiment [7]; 0.25 µg/mL (≈ 0.392 µM) in experiment [8]; 2 µg/mL (≈ 3.14 µM) in experiment [9]; 0.5 µg/mL (≈ 0.785 µM) in experiment [10]; 4 µg/mL (≈ 6.28 µM) in experiment [11]; 0.5 µg/mL (≈ 0.785 µM) in experiment [12]. Besides, in [13], the MIC came out at 8 µg/mL (≈ 12.6 µM).

In the case of `C[C@H](O/N=C(\C(=O)N[C@@H]1C(=O)N2C(C(=O)[O-])=C(C[n+]3cccc4c3ccn4CCNC(N)=O)CS[C@H]12)c1nc(N)sc1Cl)C(=O)O`, the MIC in experiment [1] turned out to be 0.25 µg/mL (≈ 0.361 µM); in experiment [2], 2 µg/mL (≈ 2.89 µM); in experiment [3], 0.032 µg/mL (≈ 0.0462 µM); in [4], 4 µg/mL (≈ 5.78 µM); in experiment [5], 8 µg/mL (≈ 11.6 µM); in [6], 0.032 µg/mL (≈ 0.0462 µM). In addition, the MIC was determined as 4 µg/mL (≈ 5.78 µM) in experiment [7]; 0.063 µg/mL (≈ 0.091 µM) in experiment [8]; 4 µg/mL (≈ 5.78 µM) in [9]; 1 µg/mL (≈ 1.44 µM) in experiment [10]; 4 µg/mL (≈ 5.78 µM) in experiment [11]; 0.5 µg/mL (≈ 0.722 µM) in experiment [12]. In [13], this compound yielded an MIC of 16 µg/mL (≈ 23.1 µM).

As for `C[C@H](O/N=C(\C(=O)N[C@@H]1C(=O)N2C(C(=O)[O-])=C(C[n+]3cccc4c3nc(N)n4CCNCCO)CS[C@H]12)c1nc(N)sc1Cl)C(=O)O`, the MIC is 0.5 µg/mL (≈ 0.705 µM) in experiment [1]; 4 µg/mL (≈ 5.64 µM) in experiment [2]; 0.016 µg/mL (≈ 0.0226 µM) in experiment [3]; 2 µg/mL (≈ 2.82 µM) in experiment [4]; 4 µg/mL (≈ 5.64 µM) in experiment [5]; 0.032 µg/mL (≈ 0.0451 µM) in experiment [6]. In addition, the MIC in [7] was found to be 4 µg/mL (≈ 5.64 µM); in experiment [8], 0.063 µg/mL (≈ 0.0888 µM); in [9], 4 µg/mL (≈ 5.64 µM); in experiment [10], 1 µg/mL (≈ 1.41 µM); in [11], 2 µg/mL (≈ 2.82 µM); in experiment [12], 0.5 µg/mL (≈ 0.705 µM). Further, the MIC in experiment [13] came out at 16 µg/mL (≈ 22.6 µM).

`C[C@H](O/N=C(\C(=O)N[C@@H]1C(=O)N2C(C(=O)[O-])=C(C[n+]3cccc4c3nc(N)n4[C@H]3CCNC3)CS[C@H]12)c1nc(N)sc1Cl)C(=O)O`: the MIC is 0.25 µg/mL (≈ 0.362 µM) in experiment [1]; 2 µg/mL (≈ 2.89 µM) in experiment [2]; 0.016 µg/mL (≈ 0.0231 µM) in experiment [3]; 2 µg/mL (≈ 2.89 µM) in experiment [4]; 2 µg/mL (≈ 2.89 µM) in [5]; 0.032 µg/mL (≈ 0.0463 µM) in [6]. Moreover, the MIC turned out to be 2 µg/mL (≈ 2.89 µM) in [7]; 0.125 µg/mL (≈ 0.181 µM) in experiment [8]; 4 µg/mL (≈ 5.79 µM) in [9]; 0.5 µg/mL (≈ 0.723 µM) in experiment [10]; 2 µg/mL (≈ 2.89 µM) in experiment [11]; 0.5 µg/mL (≈ 0.723 µM) in [12]. Moreover, in experiment [13], the MIC amounted to 8 µg/mL (≈ 11.6 µM).

For `CNCCCn1c(N)cc2c1ccc[n+]2CC1=C(C(=O)[O-])N2C(=O)[C@@H](NC(=O)/C(=N\O[C@@H](C)C(=O)O)c3nc(N)sc3Cl)[C@H]2SC1`, the MIC in experiment [1] was 0.25 µg/mL (≈ 0.361 µM); in [2], 2 µg/mL (≈ 2.89 µM); in experiment [3] it was 0.016 µg/mL (≈ 0.0231 µM); in experiment [4] it was 4 µg/mL (≈ 5.78 µM); in [5], 2 µg/mL (≈ 2.89 µM); in experiment [6], 0.016 µg/mL (≈ 0.0231 µM). Besides, the MIC in [7] is 2 µg/mL (≈ 2.89 µM); in experiment [8], 0.063 µg/mL (≈ 0.091 µM); in experiment [9] it was 1 µg/mL (≈ 1.44 µM); in [10] it was 0.5 µg/mL (≈ 0.722 µM); in experiment [11], 2 µg/mL (≈ 2.89 µM); in experiment [12], 0.5 µg/mL (≈ 0.722 µM). The compound further returned an MIC in experiment [13] of 16 µg/mL (≈ 23.1 µM).

As to `CNCCn1c(N)nc2c[n+](CC3=C(C(=O)[O-])N4C(=O)[C@@H](NC(=O)/C(=N\O[C@@H](C)C(=O)O)c5nc(N)sc5Cl)[C@H]4SC3)ccc21`, the MIC in experiment [1] was determined as 0.25 µg/mL (≈ 0.368 µM); in experiment [2], 1 µg/mL (≈ 1.47 µM); in experiment [3], 0.032 µg/mL (≈ 0.0471 µM); in experiment [4], 4 µg/mL (≈ 5.89 µM); in experiment [5], 4 µg/mL (≈ 5.89 µM); in experiment [6], 0.032 µg/mL (≈ 0.0471 µM). Besides, the MIC in experiment [7] came to 2 µg/mL (≈ 2.94 µM); in [8], 0.125 µg/mL (≈ 0.184 µM); in experiment [9], 16 µg/mL (≈ 23.6 µM); in [10], 1 µg/mL (≈ 1.47 µM); in experiment [11] it was 4 µg/mL (≈ 5.89 µM); in experiment [12], 0.5 µg/mL (≈ 0.736 µM). The compound also yielded an MIC in experiment [13] of 8 µg/mL (≈ 11.8 µM).
